The record followed here is PMC11946258, “Self-Assembly, Antimicrobial Properties and Biodegradability of Ester-Functionalized Choline-Based Surface-Active Ionic Liquids” (Molecules, 2025).

Several values for one entry are separate records, joined by “and”; a condition that tells them apart may be missing. Equal entries are not always repeated.

For one data set, the system named is Klebsiella aerogenes. In words: MIC broth microdilution. The data set is classed as cell-based. To be noted: ATCC13048; Klebsiella aerogenes ATCC 13048, 24 h, 37 °C. Here is the method:
(§1) The antimicrobial activity of cholinium-based ILs with an ester group in the alkyl chain was evaluated against a range of representative bacteria and fungi.
(§2) Antibacterial assays were performed against the following microorganisms: Bacillus subtilis ATCC 6633, Staphylococcus epidermidis ATCC 12228, Staphylococcus aureus ATCC 29213, Micrococcus luteus ATCC10240, Listeria monocytogenes ATCC 15313, methicillin-resistant Staphylococcus aureus ATCC 43300, Escherichia coli ATCC 8739, Acinetobacter baumannii ATCC 19606, Klebsiella aerogenes ATCC 13048, Pseudomonas aeruginosa 9027, and Salmonella enterica ATCC14208. The antibacterial activity was assessed in vitro using the minimum inhibitory concentration (MIC) method. MIC is defined as the lowest concentration of an antimicrobial agent that prevents visible bacterial growth after 24 h of incubation at 37 °C. The ionic liquids were dissolved in Mueller–Hinton broth (MBH) at concentrations ranging from 1 to 256 μg/mL. The broth was added (200 μL) to appropriate wells of a 96-well polystyrene microtitre plate. Then, 10 μL of a nutrient broth starter culture of each bacterial strain was added to achieve final inocula of approximately […] colony forming units (CFU)/mL. A growth control using nutrient broth medium without the ionic liquid was included. The plates were incubated 37 °C for 24 h. Bacterial growth was initially observed visually, with increased turbidity indicating cell growth. […] A color change of resazurine from blue to pink indicated bacterial metabolic activity. All the experiments were performed in triplicate to ensure reproducibility.
On the technique in general: Dilution methods test growth across graded concentrations, often in twofold steps.

In data set [1] the test system is Staphylococcus epidermidis. In words: MIC broth microdilution. The data set is classed as cell-based. The conditions noted are these: ATCC12228; Staphylococcus epidermidis ATCC 12228, 24 h, 37 °C. Here is the method: as §1, §2
For a further data set, the system named is Escherichia coli. In words: MIC broth microdilution. The data set is classed as cell-based. To be noted: ATCC8739; Escherichia coli ATCC 8739, 24 h, 37 °C. Here is the method: as §1, §2
In the next data set the test system is Listeria monocytogenes. As to the kind of experiment: MIC broth microdilution. The conditions noted are these: ATCC15313; Listeria monocytogenes ATCC 15313, 24 h, 37 °C. Format: cell-based. Here is the method: as §1, §2
The test system of the next data set is Acinetobacter baumannii. In words: MIC broth microdilution. Format: cell-based. The conditions noted are these: ATCC19606; Acinetobacter baumannii ATCC 19606, 24 h, 37 °C. Here is the method:
as §1, §2

The test system of another data set is Salmonella enterica. In words: MIC broth microdilution. To be noted: Salmonella enterica ATCC14208, 24 h, 37 °C. The data set is classed as cell-based. Here is the method:
as §1, §2

The subject of the next data set is Staphylococcus aureus. As to the kind of experiment: MIC broth microdilution. The conditions noted are these: ATCC29213; Staphylococcus aureus ATCC 29213, 24 h, 37 °C. Format: cell-based. Here is the method:
as §1, §2

For the next data set, the system named is Pseudomonas aeruginosa. As to the kind of experiment: MIC broth microdilution. The data set is classed as cell-based. The conditions noted are these: Pseudomonas aeruginosa 9027, 24 h, 37 °C. Here is the method:
as §1, §2

A further data set deals with Micrococcus luteus. As to the kind of experiment: MIC broth microdilution. The data set is classed as cell-based. The conditions noted are these: Micrococcus luteus ATCC10240, 24 h, 37 °C. Here is the method:
as §1, §2

Data set [2] has as its system erythrocytes from rabbit blood. As to the kind of experiment: Hemolytic activity. Format: cell-based. The conditions noted are these: concentration inducing 50% hemolysis, PBS pH 7.4, 10 min. Here is the method:
To perform an initial assessment of cell toxicity, hemolysis has been employed. The hemolytic activity of ester-functionalized choline-based ILs was determined by mesuring the release of haemoglobin in erythrocytes from rabbit blood samples in the presence of these compounds. The HC50 values, representing the concentracion inducing 50% hemolysis, were calculated from the plots of the percentages of hemolysis versus CnECholBr concentration (Figure 7). The HC50 values are compiled in Table 4.
Rabbit blood samples, used to prepare the erythrocyte suspension, were obtained from the animal facility of the Research and Development Center (CID) of the Spanish National Research Council (CID-CSIC) in Barcelona, Spain. The collection of fresh blood from rabbits adhered strictly to the bioethical guidelines stipulated by Spanish legislation, ensuring ethical treatment of the animals and compliance with research protocols. Heparinized blood samples were centrifuged for 10 min at 3000 rpm. The supernatant containing the white cells was discarded, while the erythrocytes were washed three times in PBS (pH 7.4). Erythrocytes were then suspended in PBS at a cell density of 8 × 10^9 cells/mL. A series of different volumes of a concentrated IL solution (10 to 80 μL) were placed in Eppendorf tubes containing 25 μL of erythrocyte suspension and PBS was added to each tube to a total volume of 1 mL [33]. Samples were shaken for 10 min at rt and the tubes were centrifuged (5 min at 10,000 rpm). The percentage of hemolysis was calculated by comparing the absorbance (540 nm) of the supernatant of the samples containing surfactants with that of the hemolyzed control with distilled water. The HC50 (concentration of surfactant that causes 50% hemolysis) was determined from the concentration-response curves.

The nature of data set [3]: Critical micelle concentration by conductivity. The data set is classed as physicochemical. The conditions noted are these: aqueous solution, 25 °C. The source says:
The change in specific conductivity of ester-functionalized choline-based ILs as a function of their concentration was investigated. […] Conductometric plots of the other homologues are presented in the Supplemetary Materials (Figures S10 and S11).
In the pre- and postmicellization zones, the specific conductivity values are represented by two straight lines with different slopes. As a consequence of the micelle’s reduced mobility in comparison to the monomers and the binding of certain counterions to it, a pronounced change in slope is observed. The critical micelle concentration (CMC) value was calculated from the point of inflection in the curve. […] In accordance with the empirical Stauff–Klevens Equation (1), a linear relationship is observed between log CMC and alkyl chain length:log cmc = A − B × n(1)
Conductivity measurements were carried out at 25 °C using an Orion conductivity cell 913005MD with an epoxy/graphite electrode and a Thermo Orion 5 Star multiparameter instrument with a cell constant of 0.475 cm^−1.

Consider `CCCCCCCCCCOC(=O)C[N+](C)(C)CCO` [C10ECholBr], for which the minimum inhibitory concentration (MIC) (in the data set with Klebsiella aerogenes; in data set [1]; in the data set on Escherichia coli; against Listeria monocytogenes; in the data set with Acinetobacter baumannii; in the data set on Salmonella enterica) was over 256 µg/mL in each case. For the same molecule, the minimal inhibitory concentration (MIC) in the data set on Staphylococcus aureus, in the data set on Pseudomonas aeruginosa and against Micrococcus luteus was over 256 µg/mL in each case. The 50% haemolytic concentration (HC50) (commonly the concentration giving 50% haemolysis) in data set [2] is over 2500 µM. Further, the CMC in data set [3] was 11.2 ± 0.8 mM.

With `CCCCCCCCCCCCOC(=O)C[N+](C)(C)CCO` [C12ECholBr], the MIC – broadly, the lowest concentration found to suppress growth – is over 256 µg/mL in the data set with Klebsiella aerogenes; 64 µg/mL in data set [1]; over 256 µg/mL in the data set on Escherichia coli; over 256 µg/mL against Listeria monocytogenes; over 256 µg/mL against Acinetobacter baumannii; over 256 µg/mL with Salmonella enterica. Besides, the MIC was 64 µg/mL against Staphylococcus aureus, over 256 µg/mL against Pseudomonas aeruginosa and 16 µg/mL against Micrococcus luteus. The HC50 in data set [2] is listed as 232 ± 2 µM. For the same molecule, in [3], the CMC worked out at 4.2 ± 0.5 mM.

Consider `CCCCCCCCCCCCCCOC(=O)C[N+](C)(C)CCO.[Br-]` [C14ECholBr, N-(2-hydroxyethyl)-N,N-dimethyl-2-oxo-2-(tetradecyloxy)ethan-1-aminium bromide], for which the MIC with Klebsiella aerogenes is over 256 µg/mL; in [1], 64 µg/mL; with Escherichia coli, over 256 µg/mL; in the data set on Listeria monocytogenes, over 256 µg/mL; with Acinetobacter baumannii it was over 256 µg/mL; in the data set with Salmonella enterica, over 256 µg/mL. Also, the minimum inhibitory concentration (MIC) is 128 µg/mL with Staphylococcus aureus, over 256 µg/mL against Pseudomonas aeruginosa and 8 µg/mL with Micrococcus luteus. Also, in data set [2], the 50% haemolytic concentration (HC50) is 56 µM and 56 ± 1 µM. Besides, the CMC in [3] is listed as 0.7 ± 0.1 mM.
